Data reported in PubChem BioAssay AID330 (DTP/NCI, 2004).
Values joined by “and” are separate entries in the source; they are usually repeats but may differ in a detail not shown here. Identical values can stand only once. Toxic doses and inconclusive results are not listed. How the source made its calls: active means survival T/C of 150% or more; inactive means T/C below 125% in these data. Square brackets hold non-standard residues; d marks the D form. Peptide text beside a SMILES is read from it. * marks the point of attachment. ξ: configuration not given here. Cbz = O=C(OCc1ccccc1)*; ξI = CCC(C)C(N)C(=O)O

System: P388 leukemia ip, CD2F1 mice, survival T/C
Assay: NCI In Vivo Anticancer Drug Screen. Data for tumor model P388 Leukemia (intraperitoneal) in CD2F1 (CDF1) mice
Conditions: endpoint: median survival time, higher = longer survival
Method in brief: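 Mice carrying the transplanted tumor received test compound or vehicle. Survival was recorded in each group, and the value is the treated-group measurement divided by that of the vehicle-treated control group.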

[1] = dose: 100.0 mg/kg/injection, schedule: Q01DX009 (ip), vehicle: saline with Tween-80
[2] = dose: 200.0 mg/kg/injection, schedule: Q01DX009 (ip), vehicle: saline with Tween-80
[3] = dose: 50.0 mg/kg/injection, schedule: Q01DX005 (ip), vehicle: saline
[4] = dose: 100.0 mg/kg/injection, schedule: Q01DX005 (ip), vehicle: saline
[5] = dose: 50.0 mg/kg/injection, schedule: Q01DX005 (ip), vehicle: Klucel (hydroxypropylcellulose) (HPC)
[6] = dose: 100.0 mg/kg/injection, schedule: Q01DX005 (ip), vehicle: Klucel (hydroxypropylcellulose) (HPC)
[7] = dose: 200.0 mg/kg/injection, schedule: Q01DX005 (ip), vehicle: Klucel (hydroxypropylcellulose) (HPC)
[8] = dose: 50.0 mg/kg/injection, schedule: Q01DX009 (ip), vehicle: saline with Tween-80
[9] = dose: 120.0 mg/kg/injection, schedule: Q01DX005 (ip), vehicle: saline with Tween-80
[10] = dose: 240.0 mg/kg/injection, schedule: Q01DX005 (ip), vehicle: saline with Tween-80
[11] = dose: 60.0 mg/kg/injection, schedule: Q01DX005 (ip), vehicle: Klucel (hydroxypropylcellulose) (HPC)
[12] = dose: 120.0 mg/kg/injection, schedule: Q01DX005 (ip), vehicle: Klucel (hydroxypropylcellulose) (HPC)
[13] = dose: 240.0 mg/kg/injection, schedule: Q01DX005 (ip), vehicle: Klucel (hydroxypropylcellulose) (HPC)

Measured: T/C

Clc1nc2ccccc2nc1CI
inactive: dose: 2.66 mg/kg/injection, schedule: Q01DX009 (ip), vehicle: other 119 % of control | dose: 4.0 mg/kg/injection, schedule: Q01DX009 (ip), vehicle: other 119 % of control | dose: 6.0 mg/kg/injection, schedule: Q01DX009 (ip), vehicle: other 119 % of control | dose: 9.0 mg/kg/injection, schedule: Q01DX009 (ip), vehicle: other 114 % of control

O=C(O)c1cc(-c2ccc(-c3ccc(-c4cc(C(=O)O)c5cc(Cl)ccc5n4)cc3)cc2)nc2ccc(Cl)cc12
inactive: [1] 92 % of control | [2] 94 % of control | dose: 400.0 mg/kg/injection, schedule: Q01DX009 (ip), vehicle: saline with Tween-80 109 % of control

CN(CCNN1CCCC1)Cc1ccccc1Cl
inactive: dose: 12.5 mg/kg/injection, schedule: Q01DX005 (ip), vehicle: saline 102 % of control | dose: 25.0 mg/kg/injection, schedule: Q01DX005 (ip), vehicle: saline 105 % of control | [3] 102 % of control and 108 % of control | [4] 103 % of control

COC=C=CC(C)(C)OC
inactive: dose: 25.0 mg/kg/injection, schedule: Q01DX005 (ip), vehicle: Klucel (hydroxypropylcellulose) (HPC) 102 % of control and 110 % of control | [5] 103 % of control and 91 % of control and 95 % of control | [6] 103 % of control and 112 % of control and 121 % of control | [7] 100 % of control and 103 % of control and 114 % of control

O=C(Nc1ccc(S(=O)(=O)c2ccc(NC(=O)c3ccco3)cc2)cc1)c1ccco1
inactive: [8] 105 % of control | [1] 98 % of control | [2] 95 % of control

Cc1nn(C)cc1P(=O)(c1ccccc1)c1ccccc1
inactive: [5] 98 % of control | [6] 96 % of control

CC1(O)CC2(O)C=CC3=C(C(=O)c4cccc(O)c4C3=O)C2(O)C(=O)C1O (stereo unspecified)
inactive: dose: 0.75 mg/kg/injection, schedule: Q01DX005 (ip), vehicle: distilled water + Tween-80 + alcohol 107 % of control | dose: 1.5 mg/kg/injection, schedule: Q01DX005 (ip), vehicle: distilled water + Tween-80 + alcohol 114 % of control

N=c1c(C(N)=O)nc(/C=C/c2ccccc2)cn1O
inactive: dose: 12.5 mg/kg/injection, schedule: Q01DX009 (ip), vehicle: saline with Tween-80 90 % of control | dose: 25.0 mg/kg/injection, schedule: Q01DX009 (ip), vehicle: saline with Tween-80 90 % of control | [8] 96 % of control

CC(=O)Nc1cccc2c(C)cc(=O)[nH]c12
inactive: dose: 100.0 mg/kg/injection, schedule: Q01DX001 (ip), vehicle: Klucel (hydroxypropylcellulose) (HPC) 91 % of control | dose: 200.0 mg/kg/injection, schedule: Q01DX001 (ip), vehicle: Klucel (hydroxypropylcellulose) (HPC) 97 % of control | dose: 400.0 mg/kg/injection, schedule: Q01DX001 (ip), vehicle: Klucel (hydroxypropylcellulose) (HPC) 98 % of control

Nc1nc(N)nc(CCc2nc(N)nc(N)n2)n1
inactive: dose: 50.0 mg/kg/injection, schedule: Q01DX009 (ip), vehicle: saline 103 % of control | dose: 100.0 mg/kg/injection, schedule: Q01DX009 (ip), vehicle: saline 88 % of control | dose: 200.0 mg/kg/injection, schedule: Q01DX009 (ip), vehicle: saline 98 % of control

CCC(C)C(NC(=O)OCc1ccccc1)C(=O)NCC(=O)O (stereo unspecified) (Cbz-[ξI]-Gly-OH)
inactive: [5] 97 % of control | [6] 97 % of control | [7] 90 % of control

CCCCCC(/C=C/C1C(O[Si](C)(C)C(C)(C)C)CC(N(C)C)C1(C/C=C/CCCC(=O)OC)S(=O)(=O)c1ccccc1)O[Si](C)(C)C(C)(C)C (stereo unspecified)
inactive: dose: 100.0 mg/kg/injection, schedule: Q04DX002 (ip), vehicle: Klucel (hydroxypropylcellulose) (HPC) 91 % of control | dose: 200.0 mg/kg/injection, schedule: Q04DX002 (ip), vehicle: Klucel (hydroxypropylcellulose) (HPC) 88 % of control | dose: 400.0 mg/kg/injection, schedule: Q04DX002 (ip), vehicle: Klucel (hydroxypropylcellulose) (HPC) 89 % of control

CC(C)(C)C(=O)CC(=O)C(F)(F)C(F)(F)C(F)(F)F.CC(C)(C)C(=O)CC(=O)C(F)(F)C(F)(F)C(F)(F)F.CC(C)(C)C(=O)CC(=O)C(F)(F)C(F)(F)C(F)(F)F.[Pr]
inactive: [9] 116 % of control | [10] 113 % of control

CN(c1ccccc1)P(C)(Cl)(c1ccccc1)c1ccccc1
inactive: dose: 1.56 mg/kg/injection, schedule: Q01DX009 (ip), vehicle: saline with Tween-80 101 % of control | dose: 3.13 mg/kg/injection, schedule: Q01DX009 (ip), vehicle: saline with Tween-80 109 % of control | dose: 6.25 mg/kg/injection, schedule: Q01DX009 (ip), vehicle: saline with Tween-80 118 % of control

COC(=O)c1[nH]c(=O)c(C#N)c(C(=O)OC)c1C(=O)c1ccccc1
inactive: dose: 60.0 mg/kg/injection, schedule: Q01DX005 (ip), vehicle: saline with Tween-80 99 % of control | [9] 99 % of control | [10] 92 % of control

Brc1ccc2c(ccc3c2nnc2nccn23)c1
inactive: [11] 91 % of control and 95 % of control | [12] 97 % of control | [13] 86 % of control and 94 % of control

Nc1nc(N)c2cc(S(=O)(=O)c3cccc(C(F)(F)F)c3)ccc2n1
inactive: [8] 113 % of control | [1] 117 % of control | [2] 106 % of control

CCCCCCN(CCCCCC)/C(N)=N/O
inactive: dose: 5.0 mg/kg/injection, schedule: Q01DX009 (ip), vehicle: saline with Tween-80 113 % of control | dose: 10.0 mg/kg/injection, schedule: Q01DX009 (ip), vehicle: saline with Tween-80 105 % of control | dose: 20.0 mg/kg/injection, schedule: Q01DX009 (ip), vehicle: saline with Tween-80 116 % of control

O=C(O)c1cccc2c1C(=O)c1ccccc1-2
inactive: [5] 95 % of control | [6] 100 % of control | [7] 105 % of control

O=C(c1ccccc1)C(O)O
inactive: dose: 25.0 mg/kg/injection, schedule: Q04DX003 (ip), vehicle: saline with Tween-80 103 % of control | dose: 50.0 mg/kg/injection, schedule: Q04DX003 (ip), vehicle: saline with Tween-80 106 % of control | dose: 100.0 mg/kg/injection, schedule: Q04DX003 (ip), vehicle: saline with Tween-80 106 % of control and 109 % of control

Cn1nc(C(=O)O)c(=O)[nH]c1=O
inactive: [3] 98 % of control | [4] 95 % of control | dose: 200.0 mg/kg/injection, schedule: Q01DX005 (ip), vehicle: saline 98 % of control

CCN(CCO)CC(O)Cn1cnc2c(N)ncnc21 (stereo unspecified)
inactive: [11] 95 % of control | [12] 94 % of control | [13] 97 % of control

C[N+](C)(CCCCCC[N+](C)(C)C1c2ccccc2-c2ccccc21)C1c2ccccc2-c2ccccc21
inactive: dose: 0.13 mg/kg/injection, schedule: Q01DX009 (ip), vehicle: saline 105 % of control | dose: 0.25 mg/kg/injection, schedule: Q01DX009 (ip), vehicle: saline 105 % of control | dose: 0.5 mg/kg/injection, schedule: Q01DX009 (ip), vehicle: saline 102 % of control | dose: 1.0 mg/kg/injection, schedule: Q01DX009 (ip), vehicle: saline 101 % of control

[Cl][Pt][Cl].[NH-]CCC[N-]CCCC[N-]CCC[NH-]
inactive: dose: 1.56 mg/kg/injection, schedule: Q04DX003 (ip), vehicle: saline 88 % of control | dose: 3.13 mg/kg/injection, schedule: Q04DX003 (ip), vehicle: saline 98 % of control and 94 % of control | dose: 6.25 mg/kg/injection, schedule: Q04DX003 (ip), vehicle: saline 107 % of control | dose: 12.5 mg/kg/injection, schedule: Q04DX003 (ip), vehicle: saline 99 % of control and 119 % of control and 123 % of control | dose: 25.0 mg/kg/injection, schedule: Q04DX003 (ip), vehicle: saline 102 % of control and 122 % of control

COc1cc(C2c3cc4c(cc3CCN2C(=O)c2ccccc2)OCO4)cc(OC)c1OC (stereo unspecified)
inactive: [5] 93 % of control | [6] 91 % of control | [7] 93 % of control

CCN1C(=O)NS(=O)(=O)c2ccccc21
inactive: dose: 50.0 mg/kg/injection, schedule: Q01DX005 (ip), vehicle: saline with Tween-80 94 % of control | dose: 100.0 mg/kg/injection, schedule: Q01DX005 (ip), vehicle: saline with Tween-80 107 % of control | dose: 200.0 mg/kg/injection, schedule: Q01DX005 (ip), vehicle: saline with Tween-80 97 % of control

Clc1ccc2[nH]c3ccc(Cl)cc3c2c1
inactive: [5] 104 % of control | [6] 113 % of control | [7] 113 % of control

CN(CCCN(C)N=Nc1ccccc1C(=O)O)N=Nc1ccccc1C(=O)O
inactive: [1] 86 % of control | [2] 90 % of control
